This is an account of results in patent US6333320A, “Hexahydro-1,4-diazepine derivatives or salts thereof” (Yamanouchi Pharmaceutical Co., priority 1997, dated 2001).

Counter-ions that a name gives are not always drawn.

The target in the assay is T1, human activated blood coagulation factor X (Homo sapiens, UniProt P00742).
T1 construct: disulfide-linked light and heavy chains of one precursor) added to human plasma with CaCl2; clotting time CT2
The assay can be described thus: measuring the time for blood coagulation with the human activated blood coagulation factor X. Format: biochemical. The following applies: dose of the test compound for 2-time prolongation of the coagulation time; human plasma, 37° C.; read-out: Test for measuring coagulation time with the human activated blood coagulation factor X, CT2.

T1 sequence (P00742 41-179): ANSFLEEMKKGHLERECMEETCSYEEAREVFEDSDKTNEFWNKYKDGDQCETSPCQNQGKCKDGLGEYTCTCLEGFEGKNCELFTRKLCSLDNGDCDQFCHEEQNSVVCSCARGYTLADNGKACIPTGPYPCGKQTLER
T1 sequence (P00742 235-488): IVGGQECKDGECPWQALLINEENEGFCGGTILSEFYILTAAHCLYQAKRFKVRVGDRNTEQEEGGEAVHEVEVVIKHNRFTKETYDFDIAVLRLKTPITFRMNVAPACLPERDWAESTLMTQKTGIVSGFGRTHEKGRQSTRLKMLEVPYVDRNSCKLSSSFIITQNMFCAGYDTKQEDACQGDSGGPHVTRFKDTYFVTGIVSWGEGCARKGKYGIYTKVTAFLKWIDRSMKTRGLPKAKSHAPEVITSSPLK
Experimental: 1) Method of measuring the time for blood coagulation with the human activated blood coagulation factor X:
The human activated blood coagulation factor X (Cosmo-Bio Co.) was dissolved in 0.05 M tris-HCl buffer (pH=7.40) to prepare its solution of 0.05 units/ml. Blood was collected in 3.8% sodium citrate to be 1/10 by volume, and centrifuged at 3,000 rpm for 10 minutes to separate human plasma therefrom. 90 μl of the thus-prepared human plasma, 10 μl of a test compound as diluted with physiological saline, and 50 μl of the solution of the activated blood coagulation factor X were kept warmed at 37° C. for 3 minutes, to which was added 100 μl of a solution of 20 mM CaCl2, and the time for blood coagulation in the system was measured.
To measure the coagulation time, used was Amelung's KC4A. The dose of the test compound for 2-time prolongation of the coagulation time (hereinafterreferred to as CT2) was calculated on the basis of the coagulation time for the control to which was added 10 μl of physiological saline with no test compound.

As to `CC(=N)N1CCCN(c2ccc(N(Cc3ccc4ccc(C(=N)N)cc4c3)C(C)=O)cc2)CC1` [Example 17], the EC (2-fold clotting time) came out at 0.092 µM.

As to `CCOC(=O)CS(=O)(=O)N(Cc1ccc2ccc(C(=N)N)cc2c1)c1ccc(N2CCCN(C(C)=N)CC2)cc1` [Example 22, ethyl [N-[4-(4-acetimidoylhexahydro-1H-1,4-diazepin-1-yl)phenyl]-N-[(7-amidino-2-naphthyl)methyl]-sulfamoyl]acetate dihydrochloride], the EC (2-fold clotting time) amounted to 0.111 µM.

Regarding `CCOC(=O)CNS(=O)(=O)N(Cc1ccc2ccc(C(=N)N)cc2c1)c1ccc(N2CCCN(C(C)=N)CC2)cc1` [Example 23, Ethyl N-[N-[4-(4-acetimidoylhexahydro-1H-1,4-diazepin-1-yl)phenyl]-N-[(7-amidino-2-naphthyl)methyl]-sulfamoyl]glycinate], the EC (2-fold clotting time) was 0.11 µM.

Consider `CCOC(=O)CC(=O)N(Cc1ccc2ccc(C(=N)N)cc2c1)c1ccc(N2CCCN(C(C)=N)CC2)cc1` [Example 24, Ethyl N-[4-(4-acetimidoylhexahydro-1H-1,4-diazepin-1-yl)phenyl]-N-[(7-amidino-2-naphthyl)methyl]malonamate], for which the EC (2-fold clotting time) is 0.152 µM.

For `CC(=N)N1CCCN(c2ccc(N(Cc3ccc4ccc(C(=N)N)cc4c3)S(=O)(=O)CC(=O)O)cn2)CC1` [Example 32, [N-[6-(4-Acetimidoylhexahydro-1H-1,4-diazepin-1-yl)-3-pyridyl]-N-[(7-amidino-2-naphthyl)methyl]sulfamoyl]acetic acid], the EC (2-fold clotting time) is 0.089 µM.

Take `CC(=N)N1CCCN(c2ccc(N(Cc3ccc4ccc(C(=N)N)cc4c3)S(=O)(=O)CC(=O)O)cc2)CC1` [Example 33, [N-[4-(4-acet-imidoylhexahydro-1H-1,4-diazepin-1-yl)phenyl]-N-[(7-amidino-2-naphthyl)methyl]sulfamoyl]acetic acid dihydro-chloride]: the EC (2-fold clotting time) was determined as 0.098 µM.

As to `CC(=N)N1CCCN(c2ccc(N(Cc3ccc4ccc(C(=N)N)cc4c3)C(=O)CCC(=O)O)cc2)CC1` [Example 36, N-[4-(4-Acetimidoylhexahydro-1H-1,4-diazepin-1-yl)phenyl]-N-[(7-amidino-2-naphthyl)methyl] succinamic acid], the EC (2-fold clotting time) was determined as 0.069 µM.

`CCOC(=O)CC(=O)N(Cc1ccc2ccc(C(=N)N)cc2c1)c1ccc(N2CCCN(C(C)=N)CC2)nc1` [Example 72]: the EC (2-fold clotting time) is 0.119 µM.

On to `CCOC(=O)CCC(=O)N(Cc1ccc2ccc(C(=N)N)cc2c1)c1ccc(N2CCCN(C(C)=N)CC2)nc1` [Example 73], for which the EC (2-fold clotting time) turned out to be 0.224 µM.

Regarding `CC(=N)N1CCCN(c2ccc(N(Cc3ccc4ccc(C(=N)N)cc4c3)C(=S)NCC(=O)O)cc2)CC1` [Example 75, N-[4-(4-Acetimidoylhexahydro-1H-1,4-diazepin-1-yl)phenyl]-N-[(7-amidino-2-naphthyl)methyl]thioamido-acetic acid], the EC (2-fold clotting time) was 0.095 µM.

Consider `CC(=N)N1CCCN(c2ccc(N(Cc3ccc4ccc(C(=N)N)cc4c3)C(=O)CCC(=O)O)cn2)CC1` [Example 84], for which the EC (2-fold clotting time) turned out to be 0.134 µM.
